Legend:
bedstraw = test: Test B pre/postemergence bedstraw; assay type: in vivo, Galium aparine
In short: (§1)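 Test chemicals in a non-phytotoxic solvent mixture with surfactant were sprayed preemergence onto planted seeds and postemergence onto plants 2 to 18 cm tall (1- to 4-leaf stage). After twelve to sixteen days in a greenhouse, injury was visually rated against untreated controls from 0 (no effect) to 10 (complete control).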

blackgrass = test: Test B pre/postemergence blackgrass; assay type: in vivo, Alopecurus myosuroides
In short: as §1

surinam grass = test: Test B pre/postemergence surinam grass; assay type: in vivo, Brachiaria decumbens
In short: as §1

cocklebur = test: Test B pre/postemergence cocklebur; assay type: in vivo, Xanthium strumarium
In short: as §1

corn = test: Test B pre/postemergence corn; assay type: in vivo, Zea mays
In short: as §1

giant foxtail = test: Test B pre/postemergence giant foxtail; assay type: in vivo, Setaria faberii
In short: as §1

morningglory = test: Test B pre/postemergence morningglory; assay type: in vivo, Ipomoea hederacea
In short: as §1

pigweed = test: Test B pre/postemergence pigweed; assay type: in vivo, Amaranthus retroflexus
In short: as §1

rape = test: Test B pre/postemergence rape; assay type: in vivo, Brassica napus
In short: as §1

sugar beet = test: Test B pre/postemergence sugar beet; assay type: in vivo, Beta vulgaris
In short: as §1

velvetleaf = test: Test B pre/postemergence velvetleaf; assay type: in vivo, Abutilon theophrasti
In short: as §1

purple nutsedge = test: Test B pre/postemergence purple nutsedge; assay type: in vivo, Cyperus rotundus
In short: as §1

rice = test: Test B flood test rice; assay type: in vivo, Oryza sativa; details: Pre-emergence
In short: (§2)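 Plants were grown to the 2-leaf stage before treatment with test chemical, then held in a greenhouse for twelve to sixteen days. Injury was visually rated against untreated controls on a 0–10 scale, where 0 is no effect and 10 is complete control.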

duck salad = test: Test B flood test duck salad; assay type: in vivo, Heteranthera limosa; details: Pre-emergence
In short: as §2

bamyardgrass = test: Test B flood test barnyardgrass; assay type: in vivo, Echinochloa crus-galli; details: Pre-emergence
In short: as §2

[1] = Preemergence, Rate 62 g/ha, scale of 0 to 10 where 0 is no effect and 10 is complete control
[2] = Preemergence, Rate 250 g/ha, scale of 0 to 10 where 0 is no effect and 10 is complete control
[3] = Preemergence, Rate 500 g/ha, scale of 0 to 10 where 0 is no effect and 10 is complete control
[4] = Rate 62 g/ha, Postemergence, scale 0 to 10 (0 no effect, 10 complete control)
[5] = Rate 125 g/ha, Postemergence, scale of 0 to 10 where 0 is no effect and 10 is complete control
[6] = Rate 250 g/ha, Postemergence, scale of 0 to 10 where 0 is no effect and 10 is complete control
[7] = Rate 500 g/ha, Postemergence, scale 0 to 10, 0 no effect, 10 complete control
[8] = Rate 1000 g/ha, scale 0 to 10 (0 no effect, 10 complete control)
[9] = Rate 125 g/ha, flood test species, scale 0 to 10 where 0 is no effect and 10 is complete control
[10] = Rate 250 g/ha, flood-test species, scale 0 to 10, 0 is no effect, 10 is complete control
[11] = Rate 500 g/ha, flood test species, scale 0 to 10 (0 no effect, 10 complete control)

C=CCn1c(=O)on(C(=O)N(CC)C2CCCCC2)c1=O [Compound 307]
9: Giant foxtail plant response rating (giant foxtail; [2]) | Giant foxtail plant response rating (giant foxtail; [3])
6: Giant foxtail plant response rating (giant foxtail; [1])
2: Blackgrass plant response rating (blackgrass; [2]) | Corn plant response rating (corn; [3]) | Morningglory plant response rating (morningglory; [5]) | Plant response rating, Morningglory (morningglory; [6]) | Sugarbeets plant response rating (sugar beet; [3]) | Velvetleaf plant response rating (velvetleaf; [3])
0: Bedstraw plant response rating (bedstraw; [1]) | Bedstraw plant response rating (0 to 10 scale) (bedstraw; Preemergence, Rate 125 g/ha) | Bedstraw plant response rating (bedstraw; [2]) | Bedstraw plant response rating (bedstraw; [3]) | Bedstraw plant response rating (bedstraw; [4]) | Bedstraw plant response rating (bedstraw; [5]) | Plant response rating, Bedstraw (bedstraw; [6]) | Bedstraw plant response rating (bedstraw; [7]) | Blackgrass plant response rating (blackgrass; [1]) | Blackgrass plant response rating (0 to 10 scale) (blackgrass; Preemergence, Rate 125 g/ha) | Blackgrass plant response rating (blackgrass; [4]) | Blackgrass plant response rating (blackgrass; [5]) | Plant response rating, Blackgrass (blackgrass; [6]) | Blackgrass plant response rating (blackgrass; [7]) | B. signalgrass plant response rating (surinam grass; [1]) | B. signalgrass plant response rating (0 to 10 scale, 0 is no effect, 10 is complete control) (surinam grass; Preemergence, Rate 125 g/ha) | B. signalgrass plant response rating (surinam grass; [2]) | B. signalgrass plant response rating (surinam grass; [4]) | B. signalgrass plant response rating (surinam grass; [5]) | Plant response rating, B. signalgrass (surinam grass; [6]) | B. signalgrass plant response rating (surinam grass; [7]) | Cocklebur plant response rating (cocklebur; [1]) | Cocklebur plant response rating (0 to 10 scale) (cocklebur; Preemergence, Rate 125 g/ha) | Cocklebur plant response rating (cocklebur; [2]) | Cocklebur plant response rating (cocklebur; [4]) | Cocklebur plant response rating (cocklebur; [5]) | Plant response rating, Cocklebur (cocklebur; [6]) | Cocklebur plant response rating (cocklebur; [7]) | Corn plant response rating (corn; [1]) | Corn plant response rating (0 to 10 scale) (corn; Preemergence, Rate 125 g/ha) | Corn plant response rating (corn; [2]) | Corn plant response rating (corn; [4]) | Corn plant response rating (corn; [5]) | Plant response rating, Corn (corn; [6]) | Corn plant response rating (corn; [7]) | Giant foxtail plant response rating (giant foxtail; [4]) | Giant foxtail plant response rating (giant foxtail; [5]) | Plant response rating, Giant foxtail (giant foxtail; [6]) | Morningglory plant response rating (morningglory; [1]) | Morningglory plant response rating (0 to 10 scale) (morningglory; Preemergence, Rate 125 g/ha) | Morningglory plant response rating (morningglory; [2]) | Morningglory plant response rating (morningglory; [3]) | Morningglory plant response rating (morningglory; [4]) | Redroot pigweed plant response rating (pigweed; [1]) | Redroot pigweed plant response rating (0 to 10 scale) (pigweed; Preemergence, Rate 125 g/ha) | Redroot pigweed plant response rating (pigweed; [2]) | Redroot pigweed plant response rating (pigweed; [4]) | Redroot pigweed plant response rating (pigweed; [5]) | Plant response rating, Redroot pigweed (pigweed; [6]) | Rape plant response rating (rape; [1]) | Rape plant response rating (0 to 10 scale) (rape; Preemergence, Rate 125 g/ha) | Rape plant response rating (rape; [2]) | Rape plant response rating (rape; [3]) | Rape plant response rating (rape; [4]) | Rape plant response rating (rape; [5]) | Plant response rating, Rape (rape; [6]) | Sugarbeets plant response rating (sugar beet; [1]) | Sugarbeets plant response rating (0 to 10 scale) (sugar beet; Preemergence, Rate 125 g/ha) | Sugarbeets plant response rating (sugar beet; [2]) | Sugarbeets plant response rating (sugar beet; [4]) | Sugarbeets plant response rating (sugar beet; [5]) | Plant response rating, Sugarbeets (sugar beet; [6]) | Velvetleaf plant response rating (velvetleaf; [1]) | Velvetleaf plant response rating (0 to 10 scale) (velvetleaf; Preemergence, Rate 125 g/ha) | Velvetleaf plant response rating (velvetleaf; [2]) | Velvetleaf plant response rating (velvetleaf; [4]) | Velvetleaf plant response rating (velvetleaf; [5]) | Plant response rating, Velvetleaf (velvetleaf; [6]) | Nutsedge plant response rating (purple nutsedge; [1]) | Nutsedge plant response rating (0 to 10 scale) (purple nutsedge; Preemergence, Rate 125 g/ha) | Nutsedge plant response rating (purple nutsedge; [2]) | Nutsedge plant response rating (purple nutsedge; [3]) | Nutsedge plant response rating (purple nutsedge; [4]) | Nutsedge plant response rating (purple nutsedge; [5]) | Plant response rating, Nutsedge (purple nutsedge; [6]) | Rice plant response rating (rice; [8]) | Rice plant response rating (rice; [9]) | Rice plant response rating (rice; [10]) | Rice plant response rating (rice; [11]) | Ducksalad plant response rating (duck salad; [8]) | Ducksalad plant response rating (duck salad; [9]) | Ducksalad plant response rating (duck salad; [10]) | Ducksalad plant response rating (duck salad; [11]) | Barnyardgrass plant response rating (bamyardgrass; [8]) | Barnyardgrass plant response rating (bamyardgrass; [9]) | Barnyardgrass plant response rating (bamyardgrass; [10]) | Barnyardgrass plant response rating (bamyardgrass; [11])
8: Giant foxtail plant response rating (0 to 10 scale) (giant foxtail; Preemergence, Rate 125 g/ha)
4: Blackgrass plant response rating (blackgrass; [3]) | B. signalgrass plant response rating (surinam grass; [3]) | Redroot pigweed plant response rating (pigweed; [3])

From patent publication US6737383B1, “Herbicidal oxadiazolidines” (priority 1999, dated 2004)
